Reference: patent US20140199760A1, “PLANTS HAVING ENHANCED ABIOTIC STRESS RESISTANCE” (UNIVERSITY OF TORONTO, priority 2011, published 2014)

Legend:
[1] = system: soybean (OAC Wallace cultivar); experiment: Drought treatment of soybean with BRZ added to soil; water loss per final shoot dry weight; assay type: in vivo
From the text: (§1) FIG. 2. (A) Soil water content of wild-type Columbia (red), era1-2 (green), and line cyp85a2 (blue) during a drought treatment. […] Error bars represent standard error (n=8). (B) Water loss during the first 9 days of drought treatment divided by the final shoot dry weight (SDW) in wild-type Columbia, era1-2, and line cyp85a2. Error bars represent standard error (n=6). (C) Cold stress treatment. […]
(§2) Soil (20:20:20), prepared that day, was consistently weighed into pots (typically 140 g) and covered with a plastic wrap (GLAD Press'n Seal® Wrap) that had been punctured with a small hole in the centre. […] This was typically done by withholding water for 9 days after which shoot biomass was harvested and fresh weight was determined. Shoots were then dried at 60 C for 3 days and dry weight was determined. […]
(§3) The observation that a deficiency in endogenous BL in cyp85a2 enables drought resistance to Arabidopsis prompted the hypothesis that a similar mechanism might exist in other plant species, such as corn, soybean, and canola. […] Immediately […] the start of the experiment, daily measurements of water use were monitored to quantify the rate of water loss. […]

canola (Westar cultivar) = experiment: Drought treatment of canola with BRZ added to soil; water loss per final shoot dry weight; assay type: in vivo
corn (B73 cultivar) = experiment: Drought treatment of corn with BRZ added to soil; water loss per final shoot dry weight; assay type: in vivo
From the text: as §1, §2, §3

bean crop = details: applied brassinolide; cited from earlier work
[2] = 10 μM final concentration in soil, root uptake, 4 day drought, vs untreated controls

| Compound | water use efficiency improved [1, 2] [%] | water loss per unit of shoot weight than that of the untreated controls ([1]; 10 μM final, drought, P<0.05) | water use efficiency improved (canola (Westar cultivar); [2]) [%] | water loss per unit of shoot weight than that of the untreated controls (canola (Westar cultivar); 10 μM final, drought, P<0.05) | water use efficiency improved (corn (B73 cultivar); 20 μM final concentration in soil, root uptake, 3.5 day drought, vs untreated controls) [%] | water loss per unit of shoot weight than that of the untreated controls (corn (B73 cultivar); 20 μM final, drought, P<0.05) | increase bean crop yield (bean crop) |
| --- | --- | --- | --- | --- | --- | --- | --- |
| CC(O)(c1ccccc1)C(Cc1ccc(Cl)cc1)n1cncn1 (stereo not shown) [BRZ, Brassinazole] | 14 | significantly less | 15 | significantly less | 28 | significantly less | – |
| CC(C)[C@H](C)[C@@H](O)[C@H](O)[C@@H](C)[C@H]1CC[C@H]2[C@@H]3COC(=O)[C@H]4C[C@H](O)[C@H](O)C[C@]4(C)[C@H]3CC[C@]12C [brassinolide, Brassinolide] | – | – | – | – | – | – | approximately 45% |
